In US8980874B2, “Method and composition for treating diabetic ketoacidosis” (Midwestern University, priority 2009, dated 2015):
Non-standard residues stand in square brackets, D forms with d. Residues, ends and D or L forms follow the SMILES beside them.

Key:
Format in all cases: in vivo
[1] = tested on: rat model of DKA; assay: Plasma ET-1 level (Enzyme Immunometric Assay) in diabetic ketoacidosis rats
Procedure: In order to analyze the change in plasma ET-1 level during the treatment, blood samples were withdrawn through right femoral artery of the rats before and at the end of experiment and were collected into chilled EDTA tubes (1 mg/mL blood) containing aprotinin (500 KIU/mL of blood). The blood samples were centrifuged at 1,600×g for 15 minutes at 0° C. and plasma separated was stored at −70° C. until analyzed. ET-1 level was estimated using Assay's Design's Endothelin-1 Enzyme Immunometric Assay Kit (Nowicki et al., 2005; Brondani et al., 2007). Briefly, plasma samples and standards were added to wells coated with a monoclonal antibody specific for ET-1. The plate then was washed after 24 hours of incubation, leaving only bound ET-1 on the plate. A solution of horseradish peroxidase (HRP) labeled monoclonal antibody to ET-1 then was added, which binds to the ET-1 captured on the plate. The plate was incubated for 30 min, then washed to remove excess HRP labeled antibody. A solution of 3,3′,5,5′-tetramethylbenzidine (TMB) substrate was added, which generates a blue color when catalyzed by the HRP. Hydrochloric acid (1N) was added to stop the substrate reaction, and the resulting yellow color was read at 450 nm using DTX 800 Multimode detector. The data was analyzed with Multimode Detection Software (Beckman Coulter, Inc., Fullerton, Calif.). The measured optical density is directly proportional to the concentration of ET-1 in either standards/plasma. Blood samples from all the groups were collected before the start and at end of the treatment.
(§1) Group 4: Diabetic saline/insulin treated (D-Saline+insulin treated): Rats were injected with streptozotocin in citrate buffer (150 mg/kg ip) to induce diabetes and ketoacidosis. On day three, rats were treated with 1.5 U/kg regular insulin (Humulin® R (Regular human insulin, rDNA origin). On day four, saline and insulin treatment was carried out. Rats were infused via cannulated femoral vein saline, 0.9% NaCl at 80 mL/kg/hr and 1.5 U/kg/hr regular insulin for one hour. During the next two through four hours, rats were infused with saline, 0.9% NaCl at 40 mL/kg/hr and 1.5 U/kg/hr regular insulin (Yuen et al., 2008).
(§2) Group 5: Diabetic BMS-182874/saline/insulin treated (D-BMS+Saline+insulin treated): Rats were injected with streptozotocin in citrate buffer (150 mg/kg ip) to induce diabetes and ketoacidosis. On day three, rats were treated with 1.5 U/kg regular insulin. On day four, rats were administered a bolus dose of selective ETA receptor antagonist, BMS-182874 (9 mg/kg), then saline and insulin treatment was carried out. Rats were infused via cannulated femoral vein saline, 0.9% NaCl at 80 mL/kg/hr and 1.5 U/kg/hr regular insulin for one hour. During the next two through four hours rats were infused with saline, 0.9% NaCl at 40 mL/kg/hr and 1.5 U/kg/hr regular insulin.
(§3) Group 6: Diabetic BQ123/saline/insulin treated (D-BQ+saline+insulin treated): Same as above for Group 5, except BQ123 (1 mg/kg body weight) is used as a substitute for BMS-182874 (9 mg/kg).
(§4) Data are presented as mean±SEM. The significance of differences was estimated by one-way analysis of variance (intra group comparison with respect to base line data) and two-way analysis of variance (inter group comparison with respect to corresponding time points from each groups) followed by application of the Dunnett's Multiple Comparisons and Bonferroni test respectively. A P value of less than 0.05 was considered to be significant. The statistical analysis was processed with GraphPad Prism software Version 5.00.

[2] = tested on: rat model of DKA; assay: Brain and lung water content in diabetic ketoacidosis rats; settings: end of treatment
Procedure: Water content in the lung and brain was determined to assess brain and pulmonary edema. Assessment of brain and lung water content was carried out as follows. At the end of treatment the animal was sacrificed and trachea was immediately tied, then the lungs were dissected out. The skull was opened and brain dissected out. Brain and lungs were rinsed with saline, and weighed (wet weight). The brain and lungs were kept for drying in an oven at a temperature of 60° C. for 72 hours, then weighed again (dry weight). The percent water content was calculated using the formula: [(wet weight−dry weight)/wet weight×100].
as §1, §2, §3, §4

[3] = tested on: rat model of DKA; assay: Arterial blood gases, electrolytes, lactate and hematocrit in diabetic ketoacidosis rats
Description: Arterial blood pH, pO2, pCO2, Na^+, K^+, lactate, and hematocrit were monitored prior to, at one hour, and at the end of treatment. Blood samples were drawn from the arterial cannula using blood gas sampling syringes (Innovative Medical Technologies, Inc. Leawood, Kans.) and analyzed using a GEM Premier 3000 unit (Instrument Laboratory, Lexington, Mass.). Blood samples were withdrawn from the femoral artery for baseline reading prior to start of treatment, after the first hour of treatment, and then at the end of the treatment (fifth hour of experiment).
as §1, §2, §3, §4

[4] = tested on: rat model of DKA; assay: Cardiovascular parameters (MAP, pulse pressure, heart rate) in diabetic ketoacidosis rats; settings: result in words
Description: Rats were anaesthetized with urethane (1.5 g/kg ip.) and prepared for the determination of hemodynamic parameters (Gulati et al., 1997a; Gulati et al., 1997b). The anesthetized rats were shaved and immobilized to prepare for cannulation. A 2-3 centimeter (cm) incision was made above the femoral vein and artery and the vessels were dissected and cleaned. The left femoral vein was cannulated (PE-50 tubing, Clay Adams, Parsipanny, N.J.) and secured for drug administration. An ultra-miniature pressure transducer SPR-320 (2F Polyurethane), with a single pressure sensor side mounted at the tip (Millar Instruments, Houston, Tex.) was inserted in the left femoral artery to acquire the hemodynamic signals. Pressure transducer was connected to bridge amplifier (ML221 Bridge Amp; AD Instruments, Mountain View, Calif., USA) with Viking connector (AEC-10C) and the signals were continuously acquired at a sampling rate of 1000 S^−1 using Millar PowerLab 16/30 data acquisition system (AD Instruments, Mountain View, Calif., USA). Mean arterial pressure (MAP), heart rate (HR), and pulse pressure (PP) were determined and analyzed with LabChart-5.00 software program (Millar Instruments). After the experiment was completed, the animals were euthanized with a high dose of urethane (3 gm/kg).
as §1, §2, §3, §4

[5] = day 4, compared to diabetic untreated rats, result in words
[6] = saline+insulin, alone or after bolus BMS-182874 9 mg/kg or BQ123 1 mg/kg
[7] = saline+insulin, alone or after bolus BMS-182874 9 mg/kg or BQ123 1 mg/kg, instrument floor 6.80

Q: Which results are given for `CC(C)C[C@@H]1NC(=O)[C@@H](C(C)C)NC(=O)[C@@H]2CCCN2C(=O)[C@@H](CC(=O)O)NC(=O)[C@@H](Cc2c[nH]c3ccccc23)NC1=O` [BQ123, Cyclo(D-Trp-D-Asp-Pro-D-Val-Leu)] (cyclo(L[dW][dD]P[dV]))?
A: plasma ET-1, Day 4 (pre tx) ([1]; baseline before treatment, mean±SEM): 15.78 ± 4.11 pg/mL; effect of treatment on plasma ET-1 level ([1]; day 4, result in words (Table 4, FIG. 9)): did not significantly affect plasma ET-1 level; plasma ET-1, Day 4 (end of tx) ([1]; saline+insulin, alone or after bolus BMS-182874 9 mg/kg or BQ123 1 mg/kg, mean±SEM): 26.53 ± 5.52 pg/mL; effect on lung water content (pulmonary edema) ([2]; FIG. 7, result in words): restored lung water content; effect on brain water content (cerebral edema) ([2]; FIG. 8, result in words): restored brain water content; arterial blood pH, Day 4 (pre-tx) ([3]; baseline, instrument could not record pH below 6.80, mean±SEM): 6.82 ± 0.02; arterial blood pCO2, Day 4 (pre-tx) ([3]; baseline, mean±SEM): 25.00 ± 3.7 mmHg; arterial blood pO2, Day 4 (pre-tx) ([3]; baseline, mean±SEM): 130.2 ± 14.04 mmHg; blood K+ level, Day 4 (pre-tx) ([3]; baseline, mean±SEM): 3.4 ± 0.45 mmol/L; blood Na+ level, Day 4 (pre-tx) ([3]; baseline, mean±SEM): 140.00 ± 2.87 mmol/L; blood hematocrit (Hct), Day 4 (pre-tx) ([3]; baseline, mean±SEM): 42.6 ± 4.81%; effect of treatment on arterial blood pH (acidosis) ([3]; day 4, antagonist given with saline+insulin, result in words): produced a significant improvement in arterial blood pH; effect of treatment on blood K+ levels [3, 5]: significantly reduced the change in blood K^+ levels; effect of treatment on blood lactate levels [3, 5]: significantly reduced the change in blood lactate levels; effect of treatment on hematocrit [3, 5]: significantly reduced the hematocrit; arterial blood pCO2, Day 4 (1 hour of tx) [3, 6]: 23.6 ± 2.17 mmHg; arterial blood pCO2, Day 4 (end of tx) [3, 6]: 23.2 ± 1.95 mmHg; arterial blood pO2, Day 4 (1 hour of tx) [3, 6]: 128.4 ± 11.006 mmHg; arterial blood pO2, Day 4 (end of tx) [3, 6]: 141.2 ± 4.6 mmHg; blood K+ level, Day 4 (1 hour tx) [3, 6]: 2.04 ± 0.29 mmol/L; blood K+ level, Day 4 (end of tx) [3, 6]: 2.38 ± 0.34 mmol/L; blood Na+ level, Day 4 (1 hour of tx) [3, 6]: 147 ± 1.3 mmol/L; blood Na+ level, Day 4 (end of tx) [3, 6]: 150.04 ± 2.43 mmol/L; blood hematocrit (Hct), Day 4 (1 hour of tx) [3, 6]: 31.4 ± 2.97 %; blood hematocrit (Hct), Day 4 (end of tx) [3, 6]: 31.8 ± 2.21 %; arterial blood pH, Day 4 (1 hour of tx) [3, 7]: 6.81 ± 0.01; arterial blood pH, Day 4 (end of tx) [3, 7]: 6.91 ± 0.01; effect on mean arterial pressure ([4]; day 4, FIG. 3, antagonist given with saline+insulin): stabilized the arterial pressure; effect on heart rate ([4]; day 4, FIG. 5, antagonist given with saline+insulin): did not produce any decrease in heart rate compared to baseline
